Where “and” joins values, the source holds several entries; their conditions need not be identical. Identical values can stand only once. Marks after values point to notes of the source that are not given here.
What was measured:
[1] = Plasma pharmacokinetics of capivasertib and its glucuronide metabolite; assay type: in vivo, human
CYP = system: CYP; set-up: method as in unpublished data; conditions: ref unpublished data; cited from earlier work
[2] = Safety and tolerability (adverse events, CTCAE v5.0; full analysis set); assay type: in vivo, human; conditions: period 1, day 1 cycle 1, midazolam only 1 mg, N=21
Experimental: Safety and tolerability were evaluated in terms of AEs, which were classified and graded according to the National Cancer Institute (NCI) Common Terminology Criteria for Adverse Events (CTCAE) v5.0; vital signs; 12-lead electrocardiogram (ECG); and clinical laboratory assessments, including clinical chemistry and hematology parameters, urinalysis, HbA1c levels, and lipid profiles.
Efficacy analyses were also performed on the full analysis set. Summary and/or descriptive statistics were used to analyze baseline demographic, safety, and efficacy data; PFS and DoR were estimated using Kaplan–Meier methodology.

[3] = Midazolam plasma pharmacokinetics with or without capivasertib (part A); conditions: for AUC(0-inf): AUCinf; for tmax: median (range); for half-life: t½λz
[4] = human, plasma, oral, geometric mean (gCV%), day 8 of cycle 1, midazolam 1 mg on 3rd day off capivasertib 400 mg BID, N = 16
[5] = human, plasma, oral, geometric mean (gCV%), day 12 of cycle 1, midazolam 1 mg on 4th day on capivasertib 400 mg BID, N = 15
[6] = human, plasma, po, 1 mg, geometric mean (gCV%), day 1 of cycle 1, midazolam alone, single oral 1 mg, N = 18

Compound: NC1(C(=O)N[C@@H](CCO[C@@H]2O[C@H](C(=O)O)[C@@H](O)[C@H](O)[C@H]2O)c2ccc(Cl)cc2)CCN(c2ncnc3[nH]ccc23)CC1 [AZ14102143]
- AUCτ ([1]; geometric mean (gCV%), 12-h dosing interval, day 12 of cycle 1, capivasertib 400 mg BID): 68,810 h*ng/mL
- Ctrough cycle 1, day 13 ([1]; geometric mean (gCV%), 12 h post day 12 capivasertib evening dose): 2575 ng/mL and 2575^f (106.9) ng/mL
- Ctrough cycle 1, day 9 ([1]; geometric mean (gCV%), after 3 off-capivasertib-dosing days): 45.22 ng/mL and 45.22^e (242.1) ng/mL
- Cmax ([1]; geometric mean (gCV%), day 12 of cycle 1, 4th day on capivasertib 400 mg BID, with single oral midazolam 1 mg): 11,220 ng/mL
- t½λz ([1]; geometric mean (gCV%), day 12 of cycle 1, capivasertib 400 mg BID): 3.40 h
- tmax ([1]; median (range), day 12 of cycle 1, capivasertib 400 mg BID): 2.03^a (0.6–7.6) h
- CYP inhibition in vitro (CYP): little or no CYP inhibition

Compound: Cc1ncc2n1-c1ccc(Cl)cc1C(c1ccccc1F)=NC2 [midazolam, reference compound]
- Abdominal pain, any grade [2]: 0 n (%)
- Abdominal pain, grade ≥ 3 [2]: 0 n (%)
- Anemia, any grade [2]: 0 n (%)
- Anemia, grade ≥ 3 [2]: 0 n (%)
- Any AE, any grade [2]: 3 (14.3) n (%)
- Any AE, grade ≥ 3 [2]: 0 n (%)
- Asthenia, any grade [2]: 0 n (%)
- Asthenia, grade ≥ 3 [2]: 0 n (%)
- Blood alkaline phosphatase increased, any grade [2]: 0 n (%)
- Blood alkaline phosphatase increased, grade ≥ 3 [2]: 0 n (%)
- Blood bilirubin increased, any grade [2]: 0 n (%)
- Blood bilirubin increased, grade ≥ 3 [2]: 0 n (%)
- Blood creatinine increased, any grade [2]: 0 n (%)
- Blood creatinine increased, grade ≥ 3 [2]: 0 n (%)
- COVID-19, any grade [2]: 0 n (%)
- COVID-19, grade ≥ 3 [2]: 0 n (%)
- Decreased appetite, any grade [2]: 0 n (%)
- Decreased appetite, grade ≥ 3 [2]: 0 n (%)
- Diarrhea, any grade [2]: 0 n (%)
- Diarrhea, grade ≥ 3 [2]: 0 n (%)
- Fatigue, any grade [2]: 0 n (%)
- Fatigue, grade ≥ 3 [2]: 0 n (%)
- Gamma-glutamyl transferase increased, any grade [2]: 0 n (%)
- Gamma-glutamyl transferase increased, grade ≥ 3 [2]: 0 n (%)
- Hyperglycemia, any grade [2]: 1 (4.8) n (%)
- Hyperglycemia, grade ≥ 3 [2]: 0 n (%)
- Hypoalbuminemia, any grade [2]: 0 n (%)
- Hypoalbuminemia, grade ≥ 3 [2]: 0 n (%)
- Hypokalemia, any grade [2]: 0 n (%)
- Hypokalemia, grade ≥ 3 [2]: 0 n (%)
- Hyponatremia, any grade [2]: 0 n (%)
- Hyponatremia, grade ≥ 3 [2]: 0 n (%)
- Hypotension, any grade [2]: 0 n (%)
- Hypotension, grade ≥ 3 [2]: 0 n (%)
- Large intestinal obstruction, any grade [2]: 0 n (%)
- Large intestinal obstruction, grade ≥ 3 [2]: 0 n (%)
- Lymphocyte count decreased, any grade [2]: 0 n (%)
- Lymphocyte count decreased, grade ≥ 3 [2]: 0 n (%)
- Nausea, any grade [2]: 0 n (%)
- Nausea, grade ≥ 3 [2]: 0 n (%)
- Rash (group term), any grade [2]: 0 n (%)
- Rash (group term), grade ≥ 3 [2]: 0 n (%)
- Sepsis, any grade [2]: 0 n (%)
- Sepsis, grade ≥ 3 [2]: 0 n (%)
- Thrombocytopenia, any grade [2]: 0 n (%)
- Thrombocytopenia, grade ≥ 3 [2]: 0 n (%)
- Ureteric obstruction, any grade [2]: 0 n (%)
- Ureteric obstruction, grade ≥ 3 [2]: 0 n (%)
- Urticaria, any grade [2]: 0 n (%)
- Urticaria, grade ≥ 3 [2]: 0 n (%)
- Cmax ([3]; geometric mean (gCV%), day 1 of cycle 1, midazolam alone, single oral 1 mg, N = 18): 8.55^a (39.6) ng/mL
- AUClast ([3]; geometric mean (gCV%), day 8 of cycle 1, midazolam 1 mg on 3rd day off capivasertib 400 mg BID, N = 16): 24.49^b (45.3) h*ng/mL
- AUC(0-inf) [3, 4]: 28.3 ng·h/mL
- AUC(0-inf) [3, 5]: 39.5 ng·h/mL
- Cmax ([3]; human, plasma, oral, Cmax, geometric mean (gCV%), day 8 of cycle 1, midazolam 1 mg on 3rd day off capivasertib 400 mg BID, N = 16): 9.9 ng/mL
- Cmax ([3]; human, plasma, oral, Cmax, geometric mean (gCV%), day 12 of cycle 1, midazolam 1 mg on 4th day on capivasertib 400 mg BID, N = 15): 9.83 ng/mL
- tmax ([3]; human, plasma, oral, day 8 of cycle 1, midazolam 1 mg on 3rd day off capivasertib 400 mg BID, N = 16): ~0.5 h
- tmax ([3]; human, plasma, oral, day 12 of cycle 1, midazolam 1 mg on 4th day on capivasertib 400 mg BID, N = 15): ~0.5 h
- half-life [3, 4]: 8.52 h
- half-life [3, 5]: 7.23 h
- AUC(0-t) ([3]; human, plasma, po, 1 mg): 22.4 ng·h/mL
- AUC(0-inf) [3, 6]: 25 ng·h/mL
- tmax ([3]; human, plasma, po, 1 mg, day 1 of cycle 1, midazolam alone, single oral 1 mg, N = 18): ~0.5 h
- half-life [3, 6]: 7.24 h

From article PMC11390765 (Cancer Chemotherapy and Pharmacology, 2024)
